This is an account of results in patent US20230203060A1 (GENFLEET THERAPEUTICS (SHANGHAI) INC., priority 2020, published 2023).

For orientation: IC50 means the concentration at which inhibition is half-maximal.

Experiment [1] concerns phosphorylated ERK downstream of KRAS G12C in MIA PaCa2 cells. The experiment in a line: Cell p-ERK detection experiment (HTRF) in MIA PaCa2. The experiment is classed as cell-based, human. The following applies: Homo sapiens, MIA PaCa-2, 2 h, MIA PaCa2 cells, 2 hours with compound, Advance ERK phospho-T202/Y204 HTRF kit; read-out: p-ERK IC50. The text has this: Raw materials and instruments: MIA PaCa-2 purchased from ATCC; article number: CRL-1420; batch number: 63143594; DMEM purchased from Gibco; article number: 11995-065; batch number: 2186878; FBS purchased from Gibco; article number: 10099-141; batch number: 2109290CP; Horse serum purchased from Gibco; article number: 16050-122; batch number: 1818976; Trypsin-EDTA purchased from Gibco; article number: 25200-072; batch number: 2085552; PS purchased from Gibco; article number: 15140-122; batch number: 2145451; DMSO purchased from VWR AMRESCO; article number: 0231-500ML; batch number: 0457C072; 96-well cell culture plate purchased from Corning; article number: 3599; batch number: 22718601; white opaque 96-well plate purchased from Cisbio; article number: 66PL96025; batch number: N°05; Advance ERK phospho-T202/Y204 kit purchased from Cisbio; article number: 64AERPEH; batch number: 11D; microplate reader purchased from PerkinElmer; model: Envision MLD2105-0020; equipment number 1050369.
MIA PaCa2 was a KRAS G12C mutant human pancreatic cancer cell line cultured in 10% FBS+2.5% Horse serum DMEM culture medium. Cells at logarithmic growth stage were taken, digested with trypsin-EDTA, then collected and counted, and 2.5E4 cells were inoculated in a 96-well cell culture plate and cultured overnight. A 3.16-fold gradient concentration stock solution of 1000× compound was prepared with DMSO, and diluted 200-fold to 5× compound stock solution with culture medium. On the second day after cell inoculation, 5× compound stock solution was added to each cell culture well, with a final concentration of 1× and a DMSO content of 0.1%. DMSO was used as experimental control (control). After the compound was added and cultured for two hours, the residual culture medium was removed. 50 μL of cell lysate (from Advance ERK phospho-T202/Y204 kit, the same below) was added to each well, mixed well and incubated for 30 minutes, and then 16 μL of the mixed solution was transferred to a white opaque 96-well plate, and 16 μL of cell lysate was added to the blank wells. After the transfer was completed, 4 μL of p-ERK HTRF antibody (from Advance ERK phospho-T202/Y204 kit) mixture was added to each well, incubated for 4 hours, and the fluorescence value was read with the microplate reader. The inhibition rate of the compound IR (%)=(RLU control -RLU compound)/(RLU control-RLU blank)×100% was calculated. The gradient dilution concentration of the compound and the corresponding cell proliferation inhibition rate were fitted by Prism 8 four-parameter method, and the IC50 value was calculated. The compounds prepared in the above embodiments of the present disclosure have inhibitory activity of 0.0001 μM to 1 μM on the phosphorylated ERK level downstream of the cell channel of KRAS G12C protein mutant; some compounds have inhibitory activity of 0.001 μM to 1 μM or 0.001 μM to 0.5 μM on phosphorylated ERK level downstream of cell channel of KRAS G12C protein mutant.
(Time-resolved FRET reads energy transfer from a long-lived donor to a nearby acceptor.)

The target in experiment [2] is T1, KRAS G12C (Homo sapiens, UniProt P01116, G12C).
T1 construct: purchased Reactionbiology
The experiment in a line: KRAS G12C NEA-HTRF experiment (SOS1-catalyzed displacement of GDP by GTP). The experiment is classed as biochemical. The text has this: Raw materials and instruments: KRAS G12C (his-tag) purchased from Reactionbiology; batch number 3496; SOS1 purchased from Reactionbiology; batch number: 3501; GTP purchased from Sigma; article number: G8877; batch number: SLBV1450; Tris-HC1 purchased from Sigma; EDTA purchased from absin; article number: abs42017668; batch number: JE20; NaCl purchased from Sigma; article number: 55886; batch number: SLBW4193; MgCl2 purchased from Shyuanye; article number: R21455; batch number: L07S9G69806; HEPES purchased from Life Technologies; article number: 15630-080; batch number: 2037042; DTT purchased from Thermo Fisher; article number: R0862; batch number: 00608918; Triton X-100 purchased from Sigma; article number: T8787-100 ML; batch number: SLBW7103; DY647-labeled GDP purchased from Jena Bioscience; article number: NU-840-647P1; batch number: BM019-045; Anti-6H1S-Tb purchased from Cisbio; article number: 61H12TLA; batch number: 13A; Bradford Assay Kit purchased from Thermo Fisher; article number: 23246; batch number: UG287474; white opaque 96-well plate purchased from Cisbio; article number: 66PL96025; batch number: N°06; NAP-5 column purchased from GE Healthcare; article number: 17085301; batch number: 16995164; mircoplate reader purchased from PerkinElmer; model: Envision MLD2105-0020; equipment number 1050369. The effect of compounds on SOS1-catalyzed displacement of GDP by GTP on KRAS protein was examined using a homogeneous time-resolved fluorescence (HTRF) method. 30 μM 6×his-tagged KRAS G12C recombinant protein was incubated with 80 μM fluorescent dye DY647-labeled GDP in labeling buffer (1 mM DTT, 7.5 mM EDTA, 25 mM Tris-HCl, 45 mM NaCl) at 20° C. in the dark for 2 hours, purified using NAP-5 column, and then protein quantification was performed with Bradford Assay Kit after purification to determine the concentration of KRAS […] 3.16-fold gradient concentration stock solution of 1000× compound was prepared with DMSO, and diluted 250-fold to 4× compound stock solution with reaction buffer (40 mM HEPES, 10 mM MgCl2, 1 mM DTT, 0.002% Triton X-100). KRAS G12C-GDP/Tb working solution (40 nM KRAS […] Tb) and SOS1/GTP working solution (0.2 μM SOS1, 200 μM GTP) were prepared using the reaction buffer. A white opaque 96-well plate was taken, and 5 μL of 4× compound stock solution and 10 μL of KRAS G12C-GDP/Tb working solution were added to each well. 5 μL of reaction buffer instead of 4x compound stock solution was used in the control well. After incubation in the dark for 15 minutes at 20° C., 5μL of SOS1/GTP working solution was added thereto, and the fluorescence value (excitation wavelength: 320 nm, emission wavelength: 615 nm and 665 nm) was read after incubating at 20° C. in the dark for 2 hours. Another T0 group was set up with 10 μL reaction buffer+10 μL KRAS G12C-GDP/Tb working solution, and the fluorescence value was read directly by the microplate reader. The fluorescence signal ratio RLU=(665 nm signal/615 nm signal)×10^4; and the compound inhibition rate IR (%)=(RLUcompound-RLUcontrol)/(RLUT0-RLUcontrol)×100% were calculated. The IC50 value was calculated by fitting the gradient dilution concentration of compound and the corresponding inhibition rate with the four-parameter method. The NEA activity of the compounds prepared in the above embodiments of the present disclosure was 0.0001 μM to 1 μM; the inhibitory activity of some compounds on KRAS G12C mutant MIA PaCa-2 cells was 0.001 μM to 0.5 μM or 0.001 μM to 0.1 μM.

T1 sequence (P01116 1-188 isoform P01116-2 G12C): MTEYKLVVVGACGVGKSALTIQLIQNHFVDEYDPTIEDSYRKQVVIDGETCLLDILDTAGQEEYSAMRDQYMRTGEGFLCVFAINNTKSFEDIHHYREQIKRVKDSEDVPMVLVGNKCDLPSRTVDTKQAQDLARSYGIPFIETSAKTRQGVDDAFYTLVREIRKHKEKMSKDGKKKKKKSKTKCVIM

Regarding `C=CC(=O)N1CCN2C(=O)c3c(N4C[C@H](C)N(C)C[C@@H]4C)nc(-c4ccccc4F)c(Cl)c3OC[C@H]2C1` [Z483, (R)-8-acryloyl-4-chloro-3-(2-fluorophenyl)-1-((2S,5S)-2,4,5-trimethylpiperazin-1-yl)-6,6a,7,8,9,10-hexahydro-12H-pyrazino[2,1-c]pyrido[3,4-f][1,4]oxazepin-12-one], the figures for the IC50 in experiment [1] and in experiment [2] were 260 nM and 340 nM, respectively.

Regarding `C=CC(=O)N1CCN2C(=O)c3c(N4C[C@@H](N5CC(F)C5)CC4(C)C)nc(-c4ccccc4F)c(F)c3OC[C@H]2C1` [Z654-1, (R)-8-acryloyl-4-fluoro-1-((S)-4-(3-fluoroazetidin-1-yl)-2,2-dimethylpyrrolidin-1-yl)-3-(2-fluorophenyl)-6,6a,7,8,9,10-hexahydro-12H-pyrazino[2,1-c]pyrido[3,4-f][1,4]oxazepin-12-one], the figures for the IC50 in experiment [1] and in experiment [2] were 1720 nM and 1820 nM, respectively.

For `C=CC(=O)N1CCN2C(=O)c3c(N4CC(N(C)CC)CC4(C)C)nc(-c4ccccc4F)c(Cl)c3OC[C@H]2C1` (stereo partly drawn) [Z657, (6aR)-8-acryloyl-4-chloro-1-(4-(methylethylamine)-2,2-dimethylpyrrolidin-1-yl)-3-(2-fluorophenyl)-6,6a,7,8,9,10-hexahydro-12H-pyrazino[2,1-c]pyrido[3,4-f][1,4]oxazepin-12-one], the figures for the IC50 in experiment [1] and in experiment [2] were 93 nM and 31.5 nM, respectively.
